In US20230124862A1, “BISMUTH THIOL COMPOUNDS AND COMPOSITIONS AND METHODS OF TREATING MICROBIAL CO-INFECTIONS” (Microbion Corporation, priority 2020, published 2023):
Converted amounts (≈) assume the structure as drawn. Read-outs that look alike come from different tables or passages of the source.

Experiments:
[1] = Particle size distribution of BisEDT samples vs processing conditions; type: physicochemical
fungal pathogens = assay: Antifungal activity, NIH/NIAID sponsored study; type: cell-based; details: 100% endpoint
Candida krusei = assay: Antifungal broth microdilution (Example 13); type: cell-based; details: for MIC2: 50% inhibition; for MIC0: complete inhibition
Haemophilus influenzae = assay: Broth microdilution MIC, Haemophilus influenzae clinical isolates; type: cell-based
[2] = particle size distribution of BisEDT samples
[3] = C. krusei ATCC 14243, Susceptible
[4] = C. krusei ATCC 96685, Susceptible
[5] = C. krusei MMX 7125, Susceptible
[6] = C. krusei MMX 7128, Susceptible
[7] = C. krusei MMX 7141, Susceptible
[8] = C. krusei MMX 7155, Susceptible
[9] = C. krusei MMX 7563, Susceptible
[10] = C. krusei MMX 9878, MICA-I, VORI-I

Row | SMILES | D(10) ([1]; crystalline BisEDT samples) [μm] | D(50) ([1]; crystalline BisEDT samples) [μm] | D(90) ([1]; crystalline BisEDT samples) [μm] | D[4, 3] ([1]; crystalline BisEDT samples) [μm] | D(10) [1, 2] [μm] | D(50) [1, 2] [μm] | D(90) [1, 2] [μm] | D[4, 3] [1, 2] [μm] | further results
1 | C1C[S][Bi]([S]CC[S][Bi]2[S]CC[S]2)[S]1 [Sample 2] | 0.58 | 1.7 | 3.9 | 2.0 | 0.58 | 1.7 | 3.9 | 2.0 | –
2 | C1C[S][Bi]([S]CC[S][Bi]2[S]CC[S]2)[S]1 [Sample 4] | 0.44 | 1.48 | 3.1 | 1.7 | 0.44 | 1.48 | 3.1 | 1.7 | –
3 | C1C[S][Bi]([S]CC[S][Bi]2[S]CC[S]2)[S]1 [Sample 9] | 0.67 | 1.0 | 1.9 | 1.1 | 0.67 | 1.0 | 1.9 | 1.1 | –
4 | C1C[S][Bi]([S]CC[S][Bi]2[S]CC[S]2)[S]1 [Sample 14] | 0.36 | 1.0 | 2.1 | 1.2 | 0.36 | 1.0 | 2.1 | 1.2 | –
5 | C1C[S][Bi]([S]CC[S][Bi]2[S]CC[S]2)[S]1 [Sample 15] | 0.32 | 0.72 | 1.6 | 0.86 | 0.32 | 0.72 | 1.6 | 0.86 | –
6 | C1C[S][Bi]([S]CC[S][Bi]2[S]CC[S]2)[S]1 [Sample 8] | 0.36 | 1.0 | 1.8 | 1.0 | 0.36 | 1.0 | 1.8 | 1.0 | –
7 | CC[C@@H]([C@H](C)O)n1ncn(-c2ccc(N3CCN(c4ccc(OC[C@@H]5CO[C@@](Cn6cncn6)(c6ccc(F)cc6F)C5)cc4)CC3)cc2)c1=O [Posaconazole] | – | – | – | – | – | – | – | – | MIC (fungal pathogens; Paecilomyces variotii, read-out: Antifungal activity, MIC 100%, P. variotii CLSI QC): ≤ 0.03 mg/L; MIC (fungal pathogens; Rhizopus arrhizus, read-out: Antifungal activity, MIC 100%, R. arrhizus RA1): 4 mg/L (≈ 5.71 µM); MIC (fungal pathogens; Rhizopus arrhizus, read-out: Antifungal activity, MIC 100%, R. arrhizus RA2): 0.06 mg/L (≈ 0.0856 µM); MIC (fungal pathogens; Rhizopus arrhizus, read-out: Antifungal activity, MIC 100%, R. arrhizus RA3): 0.125 mg/L (≈ 0.178 µM)
8 | C1C[S][Bi]([S]CC[S][Bi]2[S]CC[S]2)[S]1 [Sample 12] | 0.37 | 1.2 | 2.4 | 1.3 | 0.37 | 1.2 | 2.4 | 1.3 | –
9 | C1C[S][Bi]([S]CC[S][Bi]2[S]CC[S]2)[S]1 [Sample 13] | 0.36 | 0.98 | 2.1 | 1.2 | 0.36 | 0.98 | 2.1 | 1.2 | –
10 | C1C[S][Bi]([S]CC[S][Bi]2[S]CC[S]2)[S]1 [Sample 10] | 0.36 | 0.88 | 1.7 | 0.97 | 0.36 | 0.88 | 1.7 | 0.97 | –
11 | C1C[S][Bi]([S]CC[S][Bi]2[S]CC[S]2)[S]1 [Sample 5] | 0.33 | 0.72 | 1.6 | 0.86 | 0.33 | 0.72 | 1.6 | 0.86 | –
12 | C1C[S][Bi]([S]CC[S][Bi]2[S]CC[S]2)[S]1 [Sample 11] | 0.38 | 1.2 | 2.4 | 1.4 | 0.38 | 1.2 | 2.4 | 1.4 | –
13 | C1C[S][Bi]([S]CC[S][Bi]2[S]CC[S]2)[S]1 [Sample 3] | 0.59 | 1.9 | 4.5 | 2.3 | 0.59 | 1.9 | 4.5 | 2.3 | –
14 | C1C[S][Bi]([S]CC[S][Bi]2[S]CC[S]2)[S]1 [Sample 1] | 0.80 | 2.4 | 5.9 | 2.9 | 0.80 | 2.4 | 5.9 | 2.9 | –
15 | C1C[S][Bi]([S]CC[S][Bi]2[S]CC[S]2)[S]1 [Sample 6] | 0.34 | 0.87 | 1.8 | 0.98 | 0.34 | 0.87 | 1.8 | 0.98 | –
16 | C1C[S][Bi]([S]CC[S][Bi]2[S]CC[S]2)[S]1 [BisEBT] | – | – | – | – | – | – | – | – | MIC2 (Candida krusei; C. krusei ATCC 6258, MICA-I): 0.5 µg/mL; MIC0 (Candida krusei; C. krusei ATCC 6258, MICA-I): 1 µg/mL; MIC2 (Candida krusei; [3]): 0.5 µg/mL; MIC0 (Candida krusei; [3]): 1 µg/mL; MIC2 (Candida krusei; [4]): 0.25 µg/mL; MIC0 (Candida krusei; [4]): 0.5 µg/mL; MIC2 (Candida krusei; [5]): 0.5 µg/mL; MIC0 (Candida krusei; [5]): 1 µg/mL; MIC2 (Candida krusei; [6]): 0.5 µg/mL; MIC0 (Candida krusei; [6]): 1 µg/mL; MIC2 (Candida krusei; [7]): 0.5 µg/mL; MIC0 (Candida krusei; [7]): 1 µg/mL; MIC2 (Candida krusei; C. krusei MMX 7153, MICA-R): 0.5 µg/mL; MIC0 (Candida krusei; C. krusei MMX 7153, MICA-R): 1 µg/mL; MIC2 (Candida krusei; [8]): 0.5 µg/mL; MIC0 (Candida krusei; [8]): 1 µg/mL; MIC2 (Candida krusei; [9]): 0.5 µg/mL; MIC0 (Candida krusei; [9]): 1 µg/mL; MIC2 (Candida krusei; [10]): 0.5 µg/mL; MIC0 (Candida krusei; [10]): 1 µg/mL
17 | C1C[S][Bi]([S]CC[S][Bi]2[S]CC[S]2)[S]1 [Sample 7] | 0.39 | 1.3 | 1.6 | 1.4 | 0.39 | 1.3 | 1.6 | 1.4 | –
18 | CO/N=C(\C(=O)N[C@@H]1C(=O)N2C(C(=O)O)=C(COC(N)=O)CS[C@H]12)c1ccco1 [CFA] | – | – | – | – | – | – | – | – | MIC (Haemophilus influenzae; H. influenzae MMX 0797, BLNAR): 4 mg/L (≈ 9.43 µM); MIC (Haemophilus influenzae; H. influenzae MMX 1224 (ATCC 49247)): 4 mg/L (≈ 9.43 µM); MIC (Haemophilus influenzae; H. influenzae MMX 1302): 2 mg/L (≈ 4.71 µM); MIC (Haemophilus influenzae; H. influenzae MMX 1304): 64 mg/L (≈ 151 µM); MIC (Haemophilus influenzae; H. influenzae MMX 1740): 8 mg/L (≈ 18.9 µM); MIC (Haemophilus influenzae; H. influenzae MMX 1741): 4 mg/L (≈ 9.43 µM); MIC (Haemophilus influenzae; H. influenzae MMX 2795, BLNAR): 1 mg/L (≈ 2.36 µM); MIC (Haemophilus influenzae; H. influenzae MMX 2796, BLNAR): 4 mg/L (≈ 9.43 µM); MIC (Haemophilus influenzae; H. influenzae MMX 2798, BLNAR): 4 mg/L (≈ 9.43 µM); MIC (Haemophilus influenzae; H. influenzae MMX 2799, BLNAR): 8 mg/L (≈ 18.9 µM); MIC (Haemophilus influenzae; H. influenzae MMX 5458): 16 mg/L (≈ 37.7 µM); MIC (Haemophilus influenzae; H. influenzae MMX 5461): 8 mg/L (≈ 18.9 µM); MIC (Haemophilus influenzae; H. influenzae MMX 5469): 4 mg/L (≈ 9.43 µM); MIC (Haemophilus influenzae; H. influenzae MMX 5494): 0.5 mg/L (≈ 1.18 µM); MIC (Haemophilus influenzae; H. influenzae MMX 5495): 2 mg/L (≈ 4.71 µM); MIC (Haemophilus influenzae; H. influenzae MMX 5499): 1 mg/L (≈ 2.36 µM)
